{
  "source": "patent US20070054886A1",
  "about": "“Ras antagonists for treating neurodegenerative disorders” (RAMOT AT TEL AVIV UNIVERSITY, LTD., priority 2003, published 2007)",
  "key": {"[1]": {"test_system": "primary hippocampal and cortical neuronal cultures", "assay_type": "cell-based, rat", "procedure": "Hippocampal and cortical neuronal cultures were prepared from embryonic rat brain essentially as described by Mattson (Mattson P M, Barger S W, Begley J M and Mark R J, Methods Cell Biol 1995; 46: 187-216). Briefly, Sprague Dawley embryos (17-18 days of gestation) were removed and their brains were dissected under the hood and kept in cold in sterile HEPES buffered Hank's balanced salt solution (HBBS) lacking Ca^2+ and Mg^2+, containing 10 μg/ml gentamicin sulfate. The brain regions under study were dissected and cells were dissociated by mild 0.25% trypsin, counted and the dissociation buffer was replaced by culture medium as detailed in Mattson. The cells were plated on poly-L-lysine ([…] solution) coated 24 well plates in Neurobasal medium (Gibco, Grand Island, N.Y. # 2110 3-049) prepared as detailed in Mattson. Hippocampal or cortical cells were plated at a density of 5×10^5 cells per well in 24 well plates and grown in 1 ml medium. Cultures were a kept in humidified 95%, 5% air/CO2 incubator at 37 C for 7 days and then used for the experiments.\nCells were treated with 25 μM FTS either 24 h prior to glutamate (200 μM) treatment or immediately after glutamate treatment. Assays were performed in triplicates. Twenty-four hours after the glutamate treatment, the cells were subjected to viability-cytotoxicity assay using the Live/Dead reagent kit (L-7013, Molecular Probes) essentially as described by the manufacturer. Fluorescent images for live cells (Syto 10, green) and of dead cells (DEAD red) were collected with appropriate filters within 1 h of staining. The number of live cells was estimated by counting the green-labeled cells in 3 fields in each well. The number of live cells in each of the triplicate experimental samples was averaged. These values were used to estimate the percent of cell death comparing the glutamate treated cells (with or without FTS) to untreated controls. The read labeled dead cells could not be used for accurate estimation of cell death under the conditions used because unsynchronized cell-death leads to disintegration of dead cells resulting in inaccurate estimation of the number of dead cells.\nIn the typical experiments, either hippocampal or cortical neuronal culture was exposed to 25 μM FTS 24 h prior to the addition of glutamate. […] The cells were then exposed to 200 μM glutamate for 30 min. The medium was replaced by glutamate-free medium and 24 h later the cells were subjected to the Live/Dead assay. […] This level of cell death was used as a reference point in all experiments."}, "NMDA receptors (NMDAR)": {"test_system": "NMDA receptors (NMDAR)", "test": "NMDAR quantitative autoradiography ([3H]MK-801 binding) in brain sections of CHI mice", "assay_type": "in vivo, mouse", "details": "seven days after CHI, FTS 5 mg/kg 1 hr after CHI", "procedure": "(§1) Seven days after CHI, vehicle-treated (n=5) and FTS-treated (n=4) mice were decapitated and their brains were removed (within 1 minute), frozen in powdered dry ice, and kept at −70° C. until used. Consecutive 20-μ cryostat sections of the whole forebrain were cut in the coronal plane, and one in every ten sections (i.e. at intervals of 200μ) was thaw-mounted onto coated microscope glass slides.\nNMDAR autoradiography was performed as described (Bowery et al., 1988), with some modifications. […] At the end of incubation, the sections were dipped for 5 seconds in ice-cold buffer, washed for 90 minutes in cold fresh buffer, and then dipped in ice-cold distilled water. The dried tissue sections were exposed to tritium-sensitive film accompanied by commercial calibrated tritium standard scales (Amersham). After exposure for 36 days, the films were developed in Kodak D-19, fixed, and dried. The sections were then stained with cresyl violet for anatomical region placement according to a mouse brain atlas (Paxinos and Franklin, 1997) and for identification of lesions.\n(§2) The films were scanned and digitized using PhotoShop and a large bed Umax scanner, and saved in tiff format for accessibility to NIH image software. Using NIH Image routines, the standard curve was measured and used to calibrate regional brain measurements. Morphometry routines were used to measure the lesion area on each section where it was visible. The volume was calculated by multiplying the summed lesion areas by the distance between sections (0.2 mm)."}, "[2]": {"details": "cited from earlier work"}, "[3]": {"test": "Pharmacokinetics of [3H]-FTS in the mouse brain", "assay_type": "in vivo", "details": "[3H]-FTS 3 mg/kg i.p.", "procedure": "Farnesyl 1-^3H-thiosalicylic acid ([^3H]-FTS), 12.5 Ci/mmol, 1 mCi/mL, was purchased from American Radiolabeled Chemicals (ARC; St. Louis, Mo., U.S.A.). The labeled drug was isotopically diluted with unlabeled FTS. Mice (ICR strain) were injected i.p. with 0.1 ml of this FTS solution (14.8 μCi, 351 nmol, 3 mg/kg). At each time point (2.5, 5, 10, 20, 60, and 120 min) after the injection, two mice were killed and their brains were removed. The forebrains were washed in PBS, weighed and homogenized, and samples were counted in a scintillation fluid using an LKB β-counter with automatic correction for quenching. Data are expressed as [^3H]-FTS in dpm/g tissue as a function of time.\nFirst it was necessary to determine whether FTS can enter the brain, and if so, whether it can exist there in the micromolar concentration range previously found to be relevant to its efficacy as a Ras inhibitor in vitro (Kloog et al. 1999). To this end, we performed pharmacokinetic experiments in which mice received [^3H]-FTS (3 mg/kg, i.p.), and the amounts of labeled inhibitor in the brain were then determined by counting radioactivity in samples of brain homogenates. […] Based on the specific activity of [^3H]-FTS and assuming a homogeneous distribution in the brain, we estimated that the peak concentration of FTS was 4.5 μM. Thus, under the conditions employed here, it appears that a pharmacologically relevant concentration of FTS in the brain was achieved."}, "[4]": {"test_system": "mice subjected to closed head injury (CHI)", "test": "Lesion volume after CHI in mice", "assay_type": "in vivo, mouse", "details": "day 7 after CHI", "procedure": "as §1, §2"}, "[5]": {"details": "25 μM FTS 24 h prior to 200 μM glutamate for 30 min, Live/Dead assay 24 h later"}, "[6]": {"details": "left (ipsilateral) hemisphere, mean ± SD, 4 mice"}, "[7]": {"details": "right (contra-lateral) hemisphere, mean ± SD, 4 mice"}},
  "note": "“Also recorded” adds a separate entry of the source.",
  "data": [
    {"smiles": "CC(C)=CCC/C(C)=C/CC/C(C)=C/CSc1ccccc1C(=O)O", "note": "[FTS, farnesyl-thiosalicylic acid]", "values": [
      {"measurement": "toxic effects of FTS alone on cultured hippocampal or cortical neurons", "setting": "[1]", "value": "no toxic effects"},
      {"measurement": "toxic effect of glutamate in cortical cultures", "setting": "[1]; [5]", "value": "reduced the toxic effect of glutamate"},
      {"measurement": "toxic effect of glutamate in hippocampal cultures", "setting": "[1]; [5]", "value": "markedly reduced"},
      {"measurement": "neuroprotective effect against the glutamate toxicity", "setting": "[1]; hippocampal and cortical cultures, 25 μM FTS 24 h prior to 200 μM glutamate", "value": 70, "unit": "%"},
      {"measurement": "percent cell death relative to glutamate treated cells (100% cell death)", "setting": "[1]; hippocampal and cortical cultures, 25 μM FTS 24 h prior to 200 μM glutamate, FIG. 10", "value": 30, "unit": "%"},
      {"measurement": "effect of trauma on the binding of [3H]-MK-801 to the NMDA receptors", "setting": "NMDA receptors (NMDAR); ANOVA, no significant difference between sides (P=0.5)", "value": "completely reversed"},
      {"measurement": "NMDA-receptor density, dorsal striatum, left", "setting": "NMDA receptors (NMDAR); [6]", "value": "4.32 ± 0.32 nCi of [^3H]-MK-801 specifically bound/mg"},
      {"measurement": "NMDA-receptor density, frontal motor cortex, left", "setting": "NMDA receptors (NMDAR); [6]", "value": "6.32 ± 2.12 nCi of [^3H]-MK-801 specifically bound/mg"},
      {"measurement": "NMDA-receptor density, hippocampus CA1, left", "setting": "NMDA receptors (NMDAR); [6]", "value": "9.85 ± 1.34 nCi of [^3H]-MK-801 specifically bound/mg"},
      {"measurement": "NMDA-receptor density, hippocampus CA3, left", "setting": "NMDA receptors (NMDAR); [6]", "value": "7.69 ± 0.96 nCi of [^3H]-MK-801 specifically bound/mg"},
      {"measurement": "NMDA-receptor density, parietal cortex, left", "setting": "NMDA receptors (NMDAR); [6]", "value": "5.69 ± 1.18 nCi of [^3H]-MK-801 specifically bound/mg"},
      {"measurement": "NMDA-receptor density, perirhinal cortex, left", "setting": "NMDA receptors (NMDAR); [6]", "value": "5.92 ± 0.72 nCi of [^3H]-MK-801 specifically bound/mg"},
      {"measurement": "NMDA-receptor density, piriform cortex, left", "setting": "NMDA receptors (NMDAR); [6]", "value": "5.65 ± 1.54 nCi of [^3H]-MK-801 specifically bound/mg"},
      {"measurement": "NMDA-receptor density, ventral striatum, left", "setting": "NMDA receptors (NMDAR); [6]", "value": "4.06 ± 1.82 nCi of [^3H]-MK-801 specifically bound/mg"},
      {"measurement": "NMDA-receptor density, dorsal striatum, right", "setting": "NMDA receptors (NMDAR); [7]", "value": "5.45 ± 1.72 nCi of [^3H]-MK-801 specifically bound/mg"},
      {"measurement": "NMDA-receptor density, frontal motor cortex, right", "setting": "NMDA receptors (NMDAR); [7]", "value": "6.63 ± 1.7 nCi of [^3H]-MK-801 specifically bound/mg"},
      {"measurement": "NMDA-receptor density, hippocampus CA1, right", "setting": "NMDA receptors (NMDAR); [7]", "value": "9.25 ± 0.32 nCi of [^3H]-MK-801 specifically bound/mg"},
      {"measurement": "NMDA-receptor density, hippocampus CA3, right", "setting": "NMDA receptors (NMDAR); [7]", "value": "7.23 ± 0.42 nCi of [^3H]-MK-801 specifically bound/mg"},
      {"measurement": "NMDA-receptor density, parietal cortex, right", "setting": "NMDA receptors (NMDAR); [7]", "value": "7.04 ± 1.46 nCi of [^3H]-MK-801 specifically bound/mg"},
      {"measurement": "NMDA-receptor density, perirhinal cortex, right", "setting": "NMDA receptors (NMDAR); [7]", "value": "5.97 ± 0.88 nCi of [^3H]-MK-801 specifically bound/mg"},
      {"measurement": "NMDA-receptor density, piriform cortex, right", "setting": "NMDA receptors (NMDAR); [7]", "value": "5.57 ± 0.84 nCi of [^3H]-MK-801 specifically bound/mg"},
      {"measurement": "NMDA-receptor density, ventral striatum, right", "setting": "NMDA receptors (NMDAR); [7]", "value": "5.21 ± 0.54 nCi of [^3H]-MK-801 specifically bound/mg"},
      {"measurement": "side effects at the 5 mg/kg dose in animal models of neoplasticity", "setting": "[2]; 5 mg/kg FTS, previous studies (Jansen et al., 1999; Kloog et al., 1999)", "value": "without inadvertent side effects"},
      {"measurement": "toxicity and adverse side effects in animals", "setting": "[2]; Kloog et al., 1999", "value": "not to be toxic and have no adverse side effects"},
      {"measurement": "entry of FTS into the brain", "setting": "[3]; mouse", "value": "enters the mouse brain; also recorded: crosses the blood-brain barrier"},
      {"measurement": "time for which FTS amounts in the brain remain relatively high", "setting": "[3]; mouse forebrain", "value": "at least 2 hrs"},
      {"measurement": "time to peak amounts of FTS in the brain", "setting": "[3]; mouse forebrain", "value": "20 to 30", "unit": "min"},
      {"measurement": "peak concentration of FTS in the brain", "setting": "[3]; estimated from specific activity assuming homogeneous distribution in the brain", "value": 4.5, "unit": "µM"},
      {"measurement": "mean lesion volume", "setting": "[4]; FTS 5 mg/kg 1 hr after CHI, mean±SD of 4 animals, control 155±41 μL, p<0.07", "value": "87 ± 53", "unit": "µL"},
      {"measurement": "reduction in lesion volume (lesion size)", "setting": "[4]; FTS 5 mg/kg vs vehicle, trend, p<0.07", "value": 50, "unit": "%"},
      {"measurement": "lesion volume, range", "setting": "[4]; FTS 5 mg/kg, 4 animals", "value": "37 to 161", "unit": "µL"}
    ]}
  ]
}
